Values quoted from earlier work in PMC8536644, “Enigmatic mechanism of the N-vinylpyrrolidone hepatocarcinogenicity in the rat” (Archives of Toxicology, 2021).

Test system: CYP2B
Conditions: ref Waxmann [1999]; Lubet et al. [1985]; Tompkins and Wallac [2007]; cited from earlier work

With `CCC1(c2ccccc2)C(=O)NC(=O)NC1=O` [phenobarbital] as the compound, how does the “Increase of hepatic PROD activities” value read?
The value was 50 to 140 fold.
